Data from ChEMBL document CHEMBL1201862, “PubChem BioAssay data set” (2004).
Activity calls are given as the source filed them.

Legend:
[1] = target: T1, Short transient receptor potential channel 4 (Mus musculus, UniProt Q9QUQ5); test: block of DAMGO-driven TRPC4 calcium entry – cell-based, HEK293 TRPC4/mu-opioid, Fluo-4 calcium, dose response (AID 434942); assay type: functional;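 further: potency of inhibitors blocking the TRPC4 calcium response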
T1 sequence (Q9QUQ5 whole entry): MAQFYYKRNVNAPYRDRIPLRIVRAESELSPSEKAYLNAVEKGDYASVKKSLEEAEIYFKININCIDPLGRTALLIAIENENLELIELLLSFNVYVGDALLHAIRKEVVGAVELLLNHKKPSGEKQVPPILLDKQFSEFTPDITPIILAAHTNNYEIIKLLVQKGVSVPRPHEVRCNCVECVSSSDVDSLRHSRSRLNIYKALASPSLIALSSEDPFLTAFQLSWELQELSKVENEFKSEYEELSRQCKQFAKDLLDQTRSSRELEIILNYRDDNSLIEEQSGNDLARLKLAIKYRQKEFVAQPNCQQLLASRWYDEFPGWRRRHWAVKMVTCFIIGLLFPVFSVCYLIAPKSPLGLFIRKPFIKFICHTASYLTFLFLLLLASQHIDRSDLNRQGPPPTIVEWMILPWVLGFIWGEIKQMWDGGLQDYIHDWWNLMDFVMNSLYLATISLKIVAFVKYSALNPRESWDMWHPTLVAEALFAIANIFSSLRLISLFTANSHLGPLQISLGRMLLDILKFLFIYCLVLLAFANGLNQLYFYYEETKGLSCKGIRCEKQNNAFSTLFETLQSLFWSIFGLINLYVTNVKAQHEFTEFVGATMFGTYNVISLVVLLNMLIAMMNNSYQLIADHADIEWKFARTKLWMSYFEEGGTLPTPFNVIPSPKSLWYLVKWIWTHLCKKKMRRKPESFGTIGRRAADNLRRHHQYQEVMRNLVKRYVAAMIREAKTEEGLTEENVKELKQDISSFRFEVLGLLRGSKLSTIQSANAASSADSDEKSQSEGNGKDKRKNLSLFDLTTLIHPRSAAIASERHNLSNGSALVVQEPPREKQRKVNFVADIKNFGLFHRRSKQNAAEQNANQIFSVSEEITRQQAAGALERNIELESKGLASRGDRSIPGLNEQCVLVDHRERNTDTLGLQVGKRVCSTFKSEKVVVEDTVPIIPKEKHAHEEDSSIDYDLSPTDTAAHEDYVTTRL

[2] = alpha-synuclein stem-loop luciferase translation blockers – H4 neuroglioma cells, luminescence, confirmation (AID 1988); assay type: functional, cell-based
[3] = luciferase reporter signal suppression in cells – H4 neuroglioma cells, luminescence, dose response (AID 1990); assay type: functional, cell-based
[4] = Luminescence Cell-Based Dose Response HTS to Identify Inhibitors of 5'UTR Stem-Loop Driven Prion Protein mRNA Translation in H4 Neuroglioblastoma Cells. [Related pubchem assays: 1827 (Project Summary), 1813 (Primary HTS)]; assay type: functional
[5] = microbe, parasite or virus in culture; assay type: functional; conditions: Mycobacterium tuberculosis
[6] = target: T2, Microphthalmia-associated transcription factor (Homo sapiens, UniProt O75030); test: reducers of TRPM1 reporter luminescence, concentration series – cell-based, SK-MEL-5, cherry-picked, set 3, MITF inhibitor project, dose response (AID 493073); assay type: functional;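 further: SK-MEL-5 melanoma cells with luciferase driven by the MITF target TRPM1 promoter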
T2 sequence (O75030 whole entry): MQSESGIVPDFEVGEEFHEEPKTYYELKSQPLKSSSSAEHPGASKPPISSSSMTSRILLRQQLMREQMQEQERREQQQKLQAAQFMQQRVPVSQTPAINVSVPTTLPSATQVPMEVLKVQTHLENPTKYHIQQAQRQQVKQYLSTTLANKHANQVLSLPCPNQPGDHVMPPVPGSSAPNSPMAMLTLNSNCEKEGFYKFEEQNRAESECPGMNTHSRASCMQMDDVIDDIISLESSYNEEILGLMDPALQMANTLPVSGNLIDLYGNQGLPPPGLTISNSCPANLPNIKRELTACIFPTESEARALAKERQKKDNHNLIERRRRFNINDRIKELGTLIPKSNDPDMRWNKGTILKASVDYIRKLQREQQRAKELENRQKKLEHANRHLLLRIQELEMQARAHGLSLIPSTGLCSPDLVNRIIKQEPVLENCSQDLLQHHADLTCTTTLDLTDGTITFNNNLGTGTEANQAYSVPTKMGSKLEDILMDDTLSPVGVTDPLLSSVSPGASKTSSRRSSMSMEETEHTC

[7] = target: T3, Polyadenylate-binding protein 1 (Homo sapiens, UniProt P11940); test: MLLE binding blockers, Cy5 peptide tracer – biochemical, fluorescence polarization, Cy5-PAM2 peptide, secondary, miRNA deadenylation inhibitor project, dose response (AID 602260); assay type: functional; conditions: read-out: IC50_Mean
T3 sequence (P11940 whole entry, the tested form may be a part): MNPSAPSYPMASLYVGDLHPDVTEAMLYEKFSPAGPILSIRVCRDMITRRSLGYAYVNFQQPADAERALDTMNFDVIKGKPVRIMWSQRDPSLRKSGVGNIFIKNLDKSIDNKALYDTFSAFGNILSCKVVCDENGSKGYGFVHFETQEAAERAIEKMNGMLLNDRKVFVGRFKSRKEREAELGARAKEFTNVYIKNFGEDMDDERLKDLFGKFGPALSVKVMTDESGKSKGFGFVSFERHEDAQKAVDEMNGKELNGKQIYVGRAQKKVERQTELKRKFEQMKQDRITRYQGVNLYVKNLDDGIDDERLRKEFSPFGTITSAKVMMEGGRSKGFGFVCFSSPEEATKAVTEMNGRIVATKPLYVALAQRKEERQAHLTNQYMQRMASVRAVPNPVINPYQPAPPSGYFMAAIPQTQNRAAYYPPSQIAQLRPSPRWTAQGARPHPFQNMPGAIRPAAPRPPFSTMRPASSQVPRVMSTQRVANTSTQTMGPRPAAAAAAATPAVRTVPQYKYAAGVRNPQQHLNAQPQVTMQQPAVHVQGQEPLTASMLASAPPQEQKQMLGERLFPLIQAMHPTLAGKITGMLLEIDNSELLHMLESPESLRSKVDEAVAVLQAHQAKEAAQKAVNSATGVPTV

[8] = target: T3, Polyadenylate-binding protein 1; test: MLLE domain peptide-binding blockers, IC50 – biochemical, fluorescence polarization, FITC-PAM2 peptide, dose response (AID 602259); assay type: functional; conditions: read-out: IC50_Mean
[9] = blockers of HIV-1 envelope-mediated cell-cell fusion – cherry-pick, dose response (AID 652057); assay type: functional, cell-based
[10] = blockers of HIV-1 ZM109 envelope-driven cell-cell fusion – HeLa effector, CEM target cells, luciferase, cherry-pick, dose response (AID 652058); assay type: functional, cell-based;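 further: luciferase signal from HIV-1 Env mediated cell-cell fusion of effector and target cells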
[11] = HIV-1 AD8 envelope cell-cell fusion blockers – cherry-pick, dose response (AID 652062); assay type: functional, cell-based;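 further: luciferase signal from cell-cell fusion driven by HIV-1 clade B AD8 Env; potency is for inhibitors of fusion seen as a drop in luminescence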
[12] = off-target signal loss in HeLa-CEM21 co-culture – HeLa F-luc CTL cells, cherry-picked, counter-screen for HIV-1 Env fusion inhibitor project, dose response (AID 652040); assay type: functional, cell-based;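 further: potency for signal decrease marking cytotoxic or nonspecific inhibition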
[13] = viability loss in CEM21 cells – cell-based, CellTiter-Glo luminescence, cherry-picked, cytotoxicity control for viral fusion inhibitor project, dose response (AID 652042); assay type: functional;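 further: potency for signal decrease meaning cytotoxicity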
[14] = Trypanosoma cruzi growth suppression in host cells – NIH3T3 host cells, beta-gal luminescence, confirmation (AID 2044); assay type: functional, cell-based;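 further: intracellular parasites grown in NIH/3T3 mouse fibroblasts as host cells; luminescent beta-galactosidase reporter signal from transgenic T. cruzi replicating inside host cells; inhibitors lower the luminescence signal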
[15] = NIH3T3 cell viability loss – ATP luminescence, mouse fibroblasts, counter-screen, dose response (AID 2010); assay type: functional, cell-based;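 further: cells exposed to compound for about 90 hours before reading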

## NC1=NC2=C(CCCC2)C2(CCCCC2)S1
[1]
  EC50: 1.19 µM (active)
[2]
  EC50: 9.28 µM (active)
[3]
  EC50: > 120 µM (not active)
[4]
  EC50: 34.5 µM (active)

## CC(C)(C)c1ccc(C2C3=C(CCCC3=O)N=C3C2=C(O)c2ccccc23)cc1 (stereo not drawn)
[5]
  CC50: > 40 µM (active)

## Cc1nc2nc(C)c(NS(=O)(=O)c3ccc4c(c3)CCCC4)c(O)n2n1
[6]
  AC50: 136 µM (active)

## O=C(O)c1cc2ccccc2c(N=Nc2cccnc2)c1O
[6]
  AC50: 11.4 µM (active)

## Cc1c(N(C)S(=O)(=O)c2cc(C(=O)NCC3CCCO3)ccc2Cl)c(=O)n(-c2ccccc2)n1C (stereo not drawn)
[1]
  EC50: 1.88 µM (active)

## CCOC(=O)C1(CCc2ccccc2)CCN(Cc2cccc3c2OCO3)CC1
[1]
  EC50: 0.668 µM (active)

## CNCc1c(OCc2ccccc2)ccc2ccccc12
[1]
  EC50: 3.76 µM (active)

## COc1ccc(C)cc1-n1nnnc1SCn1nnc2ccccc2c1=O
[7]
  IC50: > 66 µM (inactive)
[8]
  IC50: > 66 µM (inactive)

## Cc1cccc(Cn2c(C(C)(C)C)cc3cccnc32)c1
[1]
  EC50: 0.531 µM (active)

## CN(CC(=O)Nc1cccc(F)c1)C(=O)CNS(=O)(=O)c1ccc(N(C)C)c([N+](=O)[O-])c1
[7]
  IC50: > 66 µM (inactive)
[8]
  IC50: > 66 µM (inactive)

## Cc1c(CCOC(=O)C23CC4CC(CC(C)(C4)C2)C3)sc[n+]1CC(=O)c1ccccc1
[9]
  AC50: 1.96 µM (active)
[10]
  AC50: 5.44 µM (active)
[11]
  AC50: 8.8 µM (active)
[12]
  AC50: 5.26 µM (active)
[13]
  AC50: 20.5 µM (active)

## CCOC(=O)c1cnc(Nc2nc3ccccc3o2)nc1CSC(=S)N(CC)CC
[5]
  CC50: 28 µM (active)
[14]
  EC50: 0.17 µM (active)
[15]
  EC50: > 60 µM (not active)
